This note sets out measurements from ChEMBL document CHEMBL1127266, “N-sulfonamides of benzopyran-related potassium channel openers: Conversion of glyburide insensitive smooth muscle relaxants to potent smooth muscle contractors” (Bioorg Med Chem Lett, 1994).

Common to all, as to type: functional
For experiment [1], the species on record is Rattus norvegicus. Description: In vitro evaluation for concentration to inhibit KCI (15 mM ) induced contractions of rat bladder.
The species entered for experiment [2] is Rattus norvegicus. In words: In vitro evaluation for concentration to inhibit KCI (25 mM ) induced contractions of rat aorta.
Experiment [3] is filed under the species Rattus norvegicus. In words: Percent glyburide reversibility as potassium channel (K ATP) opening activity assay.
The species named for experiment [4] is Rattus norvegicus. In words: Percent activity at 30 uM as the increase (+) and/or decrease (-) in the contractile response for each individual experiment in rat bladder. More on the design: scale not given: the % may be the effect or the level left.

Several values for one entry are separate records, joined by “and”; a condition that tells them apart may be missing. Equal values may be shown once.

By IC50 is commonly meant the concentration that gives 50% inhibition. For `CC1(C)C[C@H](NS(=O)(=O)C(F)(F)F)c2cc(OC(F)(F)F)ccc2O1`, the IC50 came to 6.2 µM in the experiment filed under Rattus norvegicus [1] (Rattus norvegicus) and 10.7 µM in the experiment listed under Rattus norvegicus [2] (Rattus norvegicus, Aorta). The compound further yielded a GR in the experiment filed under Rattus norvegicus [3] of 41%. As to `CC1(C)Oc2ccc(OC(F)(F)F)cc2[C@@H](NS(=O)(=O)CCl)[C@@H]1O`, in the experiment listed under Rattus norvegicus [4], the Activity turned out to be 39%.

For the compound `CC1(C)Oc2ccc(OC(F)(F)F)cc2[C@H](NS(=O)(=O)C(F)(F)F)[C@H]1O`, the IC50 turned out to be 7.1 µM in the experiment filed under Rattus norvegicus [1] (Rattus norvegicus) and 2.6 µM in the experiment listed under Rattus norvegicus [2] (Rattus norvegicus, Aorta). Besides, in the experiment listed under Rattus norvegicus [3], the GR was 0%. `CC1(C)Oc2ccc(OC(F)(F)F)cc2[C@H](NS(=O)(=O)c2ccc([N+](=O)[O-])cc2)[C@H]1O`: in the experiment listed under Rattus norvegicus [4], the Activity came to 4.68%. The same compound displayed a GR in the experiment listed under Rattus norvegicus [3] of 0%.

For the compound `CC1(C)Oc2ccc(OC(F)(F)F)cc2[C@@H](NS(=O)(=O)C(F)(F)F)[C@@H]1O` (stereo in doubt; 8) [listing 1 of 2 here], the GR in the experiment listed under Rattus norvegicus [3] is 0%.

`CC1(C)Oc2ccc(C#N)cc2[C@H](N2CCCC2=O)[C@H]1O` (single isomer, unassigned) [(-)-CROMAKALIM]: the IC50 in the experiment listed under Rattus norvegicus [1] (Rattus norvegicus) worked out at 0.15 µM; in the experiment filed under Rattus norvegicus [2] (Rattus norvegicus, Aorta), 0.06 µM. Besides, the GR in the experiment filed under Rattus norvegicus [3] was 68% and 75%. `CC1(C)Oc2ccc(OC(F)(F)F)cc2[C@@H](NS(=O)(=O)c2ccccc2)[C@@H]1O` returned an Activity in the experiment filed under Rattus norvegicus [4] of 44%. The same measure, in the same setting: the value for `CC1(C)Oc2ccc(OC(F)(F)F)cc2[C@@H](NS(=O)(=O)c2cccc3ccccc23)[C@@H]1O` was 52%. With `CC1(C)Oc2ccc(OC(F)(F)F)cc2[C@@H](NS(=O)(=O)C(F)(F)F)[C@@H]1O` (stereo in doubt; 1) [listing 1 of 2 here], the GR in the experiment filed under Rattus norvegicus [3] was 14% and 2%.

Turning to `CC1(C)Oc2ccc(OC(F)(F)F)cc2[C@@H](N2Cc3ccccc3C2=O)[C@@H]1O` [CELIKALIM], the half-maximal inhibitory concentration (IC50) was 0.03 µM in the experiment filed under Rattus norvegicus [1] (Rattus norvegicus) and 0.013 µM in the experiment filed under Rattus norvegicus [2] (Rattus norvegicus, Aorta). In the experiment filed under Rattus norvegicus [3], the GR is 80% and 55%. `CC1(C)Oc2ccc(OC(F)(F)F)cc2[C@@H](NS(=O)(=O)c2cccnc2)[C@@H]1O` showed an Activity in the experiment listed under Rattus norvegicus [4] of 133%. Take `CC1(C)Oc2ccc(OC(F)(F)F)cc2[C@@H](NS(=O)(=O)C(F)(F)F)[C@@H]1O` (stereo in doubt; 8) [listing 2 of 2 here]: the IC50 came to 3.6 µM in the experiment listed under Rattus norvegicus [1] and 2 µM in the experiment listed under Rattus norvegicus [2].

The compound `CC1(C)Oc2ccc(OC(F)(F)F)cc2[C@@H](NS(=O)(=O)c2ccc([N+](=O)[O-])cc2)[C@@H]1O` registered an Activity in the experiment listed under Rattus norvegicus [4] of 195%. As for `CC1(C)Oc2ccc(OC(F)(F)F)cc2[C@@H](NS(C)(=O)=O)[C@@H]1O`, in the experiment listed under Rattus norvegicus [4], the Activity is reported as 3%. Moreover, in the experiment listed under Rattus norvegicus [3], the GR amounted to 8%. As to `CN([C@@H]1c2cc(OC(F)(F)F)ccc2OC(C)(C)[C@H]1O)S(=O)(=O)C(F)(F)F`, the Activity in the experiment listed under Rattus norvegicus [4] turned out to be 352%. For the compound `CC1(C)Oc2ccc(OC(F)(F)F)cc2[C@@H](NS(=O)(=O)C(F)(F)F)[C@@H]1O` (stereo in doubt; 1) [listing 2 of 2 here], the IC50 in the experiment listed under Rattus norvegicus [1] (Rattus norvegicus) turned out to be 4.6 µM; in the experiment filed under Rattus norvegicus [2], 8 µM.
